According to patent US20040058948A1, “Mappicine analogs, methods of inhibiting retroviral reverse transcriptase and methods of treating retroviruses” (priority 2002, published 2004):
“And” between values parts separate entries of the source, which are not always exact repeats. Equal entries are not always repeated.

How the values were obtained:
[1] = target: RNase H activity of HIV reverse transcriptase (Human immunodeficiency virus type 1 group M subtype B, UniProt P04585); assay: Fluorescence (FRET)-based RNase H activity assay of HIV reverse transcriptase; format: biochemical, HIV-1; set-up: final concentration of 2.5 nM of the p51/p66 RT heterodimer in the assay; made in house; conditions: 10 μM inhibitor concentration, activity with analog / without analog x 100
Description: Recently, a fluorescence-based assay to perform preliminary screens in search of HIV RNase H inhibitors has been developed. The assay, which is carried out in 96-well microplates and is adaptable to robotics, is the first high-throughput screen for RNase H and is described in further detail in the Experimental section. HIV-1 RT and human RNase H were cloned, and thus comparative analysis of inhibitor action could be conducted simultaneously.
The assay for RNase H activity of HIV reverse transcriptase was the fluorescence-based assay described in detail in the Experimental section and discussed in U.S. Provisional Patent Application Serial No. 60/318,359. Assays were carried out in the absence and in the presence of mappicine analogs (10 μM final concentration). The results are reported as % residual activity, which is the RNase H activity of the enzyme in the presence of the mappicine analog divided by the RNase H activity of the enzyme in the absence of the mappicine analog, multiplied by 100. Alternatively, the results are reported as % inhibition, which is calculated as the ratio of the RNase H activity of the enzyme in the presence of the mappicine analog to the enzyme activity in the absence of the mappicine analog, multiplied by 100, and then subtracting this number from 100.
Assay for Ribonuclease H Activity Based on Fluorescence Resonance Energy Transfer (FRET)
Preparation of the Fluorophore-RNA/Quencher-DNA Hybrid Duplex Substrate.
The RNA/DNA hybrid duplex substrate for use in the assay comprises an RNA oligonucleotide of sequence 5′-GAU CUG AGC CUG GGA GCU-3′, modified at the 3′-end with Aminolink-2 and derivatized with fluorescein isothiocyanate, to provide a modified RNA oligonucleotide of the sequence 5′-GAU CUG AGC CUG GGA GCU-fluorescein-3′, annealed to a complementary DNA oligonucleotide of the sequence 5′-AGC TCC CAG GCT CAG ATC-3′ modified at the 5′-end with Aminolink-2 and derivatized with the FRET acceptor DABCYL succinimidyl ester, to provide a modified DNA oligonucleotide of the sequence 5′-DABCYL-AGC TCC CAG GCT CAG ATC-3′.
To prepare the 3′-fluorescein-RNA/5′-DABCYL-DNA hybrid duplex substrate, a known amount of 3′-fluorescein-RNA was dissolved in 20 mM Tris buffer (pH 8.0, 37° C.) to provide a final concentration of 5 μM. Two equivalents of the 5′-DABCYL-DNA oligonucleotide were added, and the mixture was heated to 90° C. for 5 min and cooled slowly to room temperature to allow duplex formation. The positioning of the fluorescein donor at the 3′-end of the RNA oligonucleotide and the DABCYL acceptor at the 5′-end of the DNA oligonucleotide provides a very close proximity of the donor and acceptor that results in a very intense quenching of the fluorescein emission in the intact RNA/DNA hybrid duplex substrate due to the spectral overlap of the fluorescence emission of fluorescein with the absorption spectrum of DABCYL. In addition, DABCYL is non-fluorescent, and thus cannot contribute any light emission. Both of these factors result in a very low background and provide a high signal-to-noise in the assay measurements. The ratio of the donor fluorescence in the absence and in the presence of its quencher is approximately fifteen-fold.
Microplate Assay Protocol for the Measurement of RNase H Activity Using the RNA/DNA Hybrid Duplex Substrate.
Reaction assay mixtures contained 5 μl of a stock solution of 2.5 μM RNA/DNA hybrid duplex substrate added to 85 μl of assay buffer (50 mM Tris, pH 8.0, 37° C., containing 60 mM KCl and 2.5 mM MgCl2), prepared in the wells of a 96-well fluorescence microtiter plate, and warmed to 37° C. using the temperature control of the SpectraMax Gemini XS microplate spectrofluorometer (Molecular Devices). Reactions were started by the addition of 5 μl of a solution of recombinant HIV-1 reverse transcriptase (usually providing a final concentration of 2.5 nM of the p51/p66 RT heterodimer in the assay), and mixing using the automatic mixing function of the microplate spectrofluorometer. […]

[2] = target: T1, RNA-dependent DNA polymerase activity of HIV reverse transcriptase (Human immunodeficiency virus type 1 group M subtype B, UniProt P04585); assay: RNA-dependent DNA polymerase activity assay of HIV reverse transcriptase; format: biochemical, HIV-1; conditions: 10 μM inhibitor concentration, activity with analog / without analog x 100
T1 construct: made in house
Description: In separate, representative assays, mappicine analogs were tested for their ability to inhibit the RNA-dependent DNA polymerase activity of HIV reverse transcriptase and for their ability to inhibit the RNase H activity of HIV reverse transcriptase. The assay for RNA-dependent DNA polymerase activity is discussed in Borkow, G. et al., “Inhibition of the Ribonuclease H and DNA Polymerase Activities of HIV-1 Reverse Transcriptase by N-(4-tert-Butylbenzoyl)-2-hydroxy-1-naphthaldehyde Hydrazone,” Biochemistry 1997, 36, 3179-3185, a copy of which is attached hereto, and the disclosure of which is incorporated herein by reference. Assays were carried out in the absence and in the presence of mappicine analogs (10 μM final concentration). The results are reported as % residual activity, which is the RNA-dependent DNA polymerase activity of the enzyme in the presence of the mappicine analog divided by the RNA-dependent activity of the enzyme in the absence of the mappicine analog, multiplied by 100.

COc1ccc2nc3c(c(-c4ccccc4)c2c1)Cn1c-3cc(C(O)C(C)(C)C)c(C)c1=O (stereo not drawn) [3Dβ]
Residual activity (%) RNase H [1]: 70% | Residual activity (%) Polymerase [2]: 85%

COc1ccc2nc3c(c(-c4ccccc4)c2c1)Cn1c-3cc(C(=O)CCC2CCCCC2)c(C)c1=O [3Dδκ]
Residual activity (%) RNase H [1]: 97% | Residual activity (%) Polymerase [2]: 81%

COc1ccc2nc3c(c(-c4ccccc4)c2c1)Cn1c-3cc(C(=O)Cc2ccccc2)c(C)c1=O [3Dεκ]
Residual activity (%) RNase H [1]: 88% | Residual activity (%) Polymerase [2]: 73%

CCC(=O)c1cc2n(c(=O)c1C)Cc1c-2nc2ccccc2c1[Si](C)(C)C(C)(C)C [4Aακ]
Residual activity (%) RNase H [1]: 76% | Residual activity (%) Polymerase [2]: 43%

Cc1c(C(=O)C(C)(C)C)cc2n(c1=O)Cc1c-2nc2ccccc2c1[Si](C)(C)C(C)(C)C [4Aβκ]
Residual activity (%) RNase H [1]: 70% | Residual activity (%) Polymerase [2]: 79%

Cc1c(C(=O)CCC2CCCCC2)cc2n(c1=O)Cc1c-2nc2ccccc2c1[Si](C)(C)C(C)(C)C [4Aδκ]
Residual activity (%) RNase H [1]: 102% | Residual activity (%) Polymerase [2]: 39%

CCC(=O)c1cc2n(c(=O)c1C)Cc1c-2nc2ccc(F)cc2c1[Si](C)(C)C(C)(C)C [4Bακ]
Residual activity (%) RNase H [1]: 77% | Residual activity (%) Polymerase [2]: 42%

Cc1c(C(=O)C(C)(C)C)cc2n(c1=O)Cc1c-2nc2ccc(F)cc2c1[Si](C)(C)C(C)(C)C [4Bβκ]
Residual activity (%) RNase H [1]: 79% | Residual activity (%) Polymerase [2]: 82%

Cc1c(C(O)CCC2CCCCC2)cc2n(c1=O)Cc1c-2nc2ccc(F)cc2c1[Si](C)(C)C(C)(C)C (stereo not drawn) [4Bδ]
Residual activity (%) RNase H [1]: 90% | Residual activity (%) Polymerase [2]: 44%

Cc1c(C(=O)CCC2CCCCC2)cc2n(c1=O)Cc1c-2nc2ccc(F)cc2c1[Si](C)(C)C(C)(C)C [4Bδκ]
Residual activity (%) RNase H [1]: 96% | Residual activity (%) Polymerase [2]: 56%

Cc1c(C(O)Cc2ccccc2)cc2n(c1=O)Cc1c-2nc2ccc(F)cc2c1[Si](C)(C)C(C)(C)C (stereo not drawn) [4Bε]
Residual activity (%) RNase H [1]: 89% | Residual activity (%) Polymerase [2]: 61%

CCC(O)c1cc2n(c(=O)c1C)Cc1c-2nc2ccc(C)cc2c1[Si](C)(C)C(C)(C)C (stereo not drawn) [4Cα]
Residual activity (%) RNase H [1]: 91% | Residual activity (%) Polymerase [2]: 94%

CCC(=O)c1cc2n(c(=O)c1C)Cc1c-2nc2ccc(C)cc2c1[Si](C)(C)C(C)(C)C [4Cακ]
Residual activity (%) RNase H [1]: 90% | Residual activity (%) Polymerase [2]: 52%

Cc1ccc2nc3c(c([Si](C)(C)C(C)(C)C)c2c1)Cn1c-3cc(C(O)C(C)(C)C)c(C)c1=O (stereo not drawn) [4Cβ]
Residual activity (%) RNase H [1]: 94% | Residual activity (%) Polymerase [2]: 67%

Cc1ccc2nc3c(c([Si](C)(C)C(C)(C)C)c2c1)Cn1c-3cc(C(=O)C(C)(C)C)c(C)c1=O [4Cβκ]
Residual activity (%) RNase H [1]: 65% | Residual activity (%) Polymerase [2]: 67%

Cc1ccc2nc3c(c([Si](C)(C)C(C)(C)C)c2c1)Cn1c-3cc(C(=O)CCC2CCCCC2)c(C)c1=O [4Cδκ]
Residual activity (%) RNase H [1]: 96% | Residual activity (%) Polymerase [2]: 52%

CCC(O)c1cc2n(c(=O)c1C)Cc1c-2nc2ccc(OC)cc2c1[Si](C)(C)C(C)(C)C (stereo not drawn) [4Dα]
Residual activity (%) RNase H [1]: 79% | Residual activity (%) Polymerase [2]: 77%

CCC(=O)c1cc2n(c(=O)c1C)Cc1c-2nc2ccc(OC)cc2c1[Si](C)(C)C(C)(C)C [4Dακ]
Residual activity (%) RNase H [1]: 77% | Residual activity (%) Polymerase [2]: 80%

COc1ccc2nc3c(c([Si](C)(C)C(C)(C)C)c2c1)Cn1c-3cc(C(=O)CCC2CCCCC2)c(C)c1=O [4Dδκ]
Residual activity (%) RNase H ([1]; 10 µM): 83% and 97% | Residual activity (%) Polymerase ([2]; 10 µM): 50% and 64%

CCC(O)c1cc2n(c(=O)c1C)Cc1c-2nc2ccccc2c1[Si](C)(C)C (stereo not drawn) [5Aα]
Residual activity (%) RNase H ([1]; 10 µM): 93% | Residual activity (%) Polymerase ([2]; 10 µM): 32%

CCC(=O)c1cc2n(c(=O)c1C)Cc1c-2nc2ccccc2c1[Si](C)(C)C [5Aακ]
Residual activity (%) RNase H [1]: 103% | Residual activity (%) Polymerase [2]: 91%

Cc1c(C(=O)C(C)(C)C)cc2n(c1=O)Cc1c-2nc2ccccc2c1[Si](C)(C)C [5Aβκ]
Residual activity (%) RNase H [1]: 97% | Residual activity (%) Polymerase [2]: 47%

Cc1c(C(=O)CCC2CCCCC2)cc2n(c1=O)Cc1c-2nc2ccccc2c1[Si](C)(C)C [5Aδκ]
Residual activity (%) RNase H [1]: 75% | Residual activity (%) Polymerase [2]: 90%

CCC(O)c1cc2n(c(=O)c1C)Cc1c-2nc2ccc(F)cc2c1[Si](C)(C)C (stereo not drawn) [5Bα]
Residual activity (%) RNase H [1]: 105% | Residual activity (%) Polymerase [2]: 82%

CCC(=O)c1cc2n(c(=O)c1C)Cc1c-2nc2ccc(F)cc2c1[Si](C)(C)C [5Bακ]
Residual activity (%) RNase H [1]: 89% | Residual activity (%) Polymerase [2]: 74%

Cc1c(C(=O)C(C)(C)C)cc2n(c1=O)Cc1c-2nc2ccc(F)cc2c1[Si](C)(C)C [5Bβκ]
Residual activity (%) RNase H [1]: 100% | Residual activity (%) Polymerase [2]: 63%

Cc1c(C(=O)CCC2CCCCC2)cc2n(c1=O)Cc1c-2nc2ccc(F)cc2c1[Si](C)(C)C [5Bδκ]
Residual activity (%) RNase H [1]: 78% | Residual activity (%) Polymerase [2]: 46%

Cc1c(C(O)Cc2ccccc2)cc2n(c1=O)Cc1c-2nc2ccc(F)cc2c1[Si](C)(C)C (stereo not drawn) [5Bε]
Residual activity (%) RNase H [1]: 88% | Residual activity (%) Polymerase [2]: 49%

CCC(O)c1cc2n(c(=O)c1C)Cc1c-2nc2ccc(C)cc2c1[Si](C)(C)C (stereo not drawn) [5Cα]
Residual activity (%) RNase H [1]: 62% | Residual activity (%) Polymerase [2]: 68%

CCC(=O)c1cc2n(c(=O)c1C)Cc1c-2nc2ccc(C)cc2c1[Si](C)(C)C [5Cακ]
Residual activity (%) RNase H [1]: 109% | Residual activity (%) Polymerase [2]: 93%

Cc1ccc2nc3c(c([Si](C)(C)C)c2c1)Cn1c-3cc(C(=O)C(C)(C)C)c(C)c1=O [5Cβκ]
Residual activity (%) RNase H [1]: 92% | Residual activity (%) Polymerase [2]: 76%

Cc1ccc2nc3c(c([Si](C)(C)C)c2c1)Cn1c-3cc(C(=O)CCC2CCCCC2)c(C)c1=O [5Cδκ]
Residual activity (%) RNase H [1]: 99% | Residual activity (%) Polymerase [2]: 59%

CCC(=O)c1cc2n(c(=O)c1C)Cc1c-2nc2ccc(OC)cc2c1[Si](C)(C)C [5Dακ]
Residual activity (%) RNase H [1]: 86% | Residual activity (%) Polymerase [2]: 50%

COc1ccc2nc3c(c([Si](C)(C)C)c2c1)Cn1c-3cc(C(O)C(C)(C)C)c(C)c1=O (stereo not drawn) [5Dβ]
Residual activity (%) RNase H [1]: 102% | Residual activity (%) Polymerase [2]: 76%

COc1ccc2nc3c(c([Si](C)(C)C)c2c1)Cn1c-3cc(C(=O)C(C)(C)C)c(C)c1=O [5Dβκ]
Residual activity (%) RNase H [1]: 86% | Residual activity (%) Polymerase [2]: 64%

COc1ccc2nc3c(c([Si](C)(C)C)c2c1)Cn1c-3cc(C(O)CCC2CCCCC2)c(C)c1=O (stereo not drawn) [5Dδ]
Residual activity (%) RNase H [1]: 96% | Residual activity (%) Polymerase [2]: 57%
